Legend:
A549 = assay: Intracellular ROS staining (DHR123 microscopy, CM-H2DCFDA flow cytometry); format: cell-based, human
Description: CellROX™ Deep Red or DHR123 fluorescence microscopy, and CM-H2DCFDA flow cytometry, were used to quantify intracellular ROS.
Dihydrorhodamine (DHR)123: Cells were similarly seeded at 3 × 10⁴ cells per well in 1 mL of medium on Cell Culture Slide I. After the desired treatments and incubation times, the medium was removed, cells were washed with PBS, and 10 µM Dihydrorhodamine 123 in PBS was applied for 30 min at 37 °C. Hoechst 33342 (0.5 µg/mL) was added for the final 10 min. Cells were then washed in PBS and imaged with the EVOS™ M7000 system in the Cy2 channel.
CM-H₂DCFDA: Cells (2 × 10⁵) were plated in 2 mL of medium per well in a 6-well plate. After treatment for the indicated times, the medium was removed, and cells were washed once with PBS. CM-H₂DCFDA (10 µM) in PBS was added for 30 min at 37 °C, followed by a 10 min equilibration in PBS. Cells were then detached with trypsin for 1 min, neutralized with FBS, pelleted by centrifugation, and resuspended in PBS. Fluorescence was measured using a CytoFLEX LX flow cytometer (excitation/emission: 485/520 nm).

[1] = test system: BLM-induced pulmonary fibrosis; assay: RT-qPCR of lung tissue in BLM-treated mice; format: in vivo, ICR mice; settings: BLM 30 mg/kg; ACF-2 10 mg/kg i.p. every 2 days or NIDB 60 mg/kg/day
Description: Total RNA (AccuPrep®) was reverse-transcribed and amplified with SYBR Green chemistry on a StepOnePlusTM system; relative expression was calculated by ΔΔCt. Male ICR mice received BLM (30 mg/kg, intratracheal). […] Total RNA was extracted from both cultured cells and mouse lung tissue using the AccuPrep® Universal RNA Extraction Kit. […] RT-qPCR was performed using iTaqTM Universal SYBR® Green Supermix on a StepOnePlusTM Real-Time PCR System. […] All animal studies were approved by the Institutional Animal Care and Use Committee of Jeju National University (Approval ID: 2024-0058) and conducted in compliance with institutional guidelines. Male ICR mice (6 weeks old, average body weight 27 g) were purchased from […] (South Korea) and housed under controlled temperature (22 ± 2 °C) and humidity (0.0 ± 15.0 %) on a 12 hr light-dark cycle with free access to food and water.

In the case of `COc1ccc(-c2c(-c3ccc(O)c(OC)c3)oc3cc(OC)c(OC)cc3c2=O)cc1` [ACF-2], the “TGF-β1-induced ROS (DCFDA flow cytometry)” value (A549; A549, ACF-2 7 μM, TGF-β1 6 h) is reported as “effectively suppressed TGF-β1-induced ROS elevation”, the “TGF-β1-induced ROS (DHR123)” value (A549; A549, TGF-β1 6 h, NAC 10 mM as comparator) is reported as “reduced TGF-β1-induced ROS accumulation even more effectively than NAC” and the “TGF-β1 (Tgfb1) expression in lung (RT-qPCR)” value [1] is reported as “markedly reduced”.
